# Assay results: patent US6699676B1, “Uses of ouabain and ouabain-like molecules in apoptosis related pathologies” (Corporation du Centre de Recherche du Centre, Hospitalier …, priority 1999, dated 2004)
# Test system: VSMC
# Assay: Chromatin cleavage assay in non-transfected VSMC
# Type: cell-based, rat
# Method: Cells were incubated in K^+-containing medium consisting of 91 mM NaCl, 5 mM KCl, 0.9 mM NaH2PO4, 44 mM NaHCO3, 1.8 mM CaCl2, 0.8 mM MgCl2, 33 mM HEPES and 5 mM D-glucose (pH 7.4) (lines 1 and 2) or in K^+-depleted medium (equimolar substitution of KCl by NaCl, line 3) with or without 10% calf serum (CS) and 1 mM ouabain as indicated. In experiments with VSMC-MYC and VSMC-E1A, cells were preincubated for 1 hr with ouabain or with K^+-depleted medium in the presence of CS and then subjected to treatment with serum-free media. After 24 hours (VSMC) or 6 hours (VSMC-MYC and VSMC-E1A), the content of chromatin fragments was measured as described in Experimental Procedures. Mean values±S.E. obtained in 3 experiments performed in quadruplicate (VSMC) or triplicate (VSMC-MYC, VSMC-E1A) are given. ★, ★★ p<0.05 and 0.001 compared to the controls.
# VSMC growing in 6-well (LDH release) or 24-well (chromatin cleavage assay) plates were preincubated for 3 hours with or without 1 mM ouabain. In part of the experiments, the cells were subjected to 30 min incubation at 46° C. (heat-treated cells, line 3). They were then incubated in the absence or presence of 10% calf serum during additional 8 hr and chromatin cleavage and LDH release were measured as indicated in Experimental Procedures and with a spectrophotometric kit (Sigma), respectively. Means±S.E. from experiments performed in triplicate (LDH release) or quadruplicate (chromatin cleavage) are given. ★, ★★ p<0.05 and 0.001 compared to ouabain-untreated cells. #p<0.001 compared to serum-supplied, heat-untreated cells.
# Cells. VSMC were obtained by explant methods from aortas of 10- to 13-week-old male rats as described previously (17), cultured in DMEM with 10% calf serum, 100 U/ml penicillin, 100 µg/ml streptomycin and used between 10 to 16 passages. Cells transfected with c-myc (VSMC-MYC) and E1A-adenovirus (VSMC-E1A) were obtained in accordance with a previously-described protocol (18,19) and were cultured in the same medium with the addition of 500 µg/ml genticin. Jurkat cells were obtained from the American Type Culture Collection and cultured in RPMI 1640 medium supplied with 10% calf serum, antibiotics, sodium pyruvate, glutamate and β-mercaptoethanol.
# Chromatin cleavage assay. Chromatin cleavage in VSMC was estimated by a technique described previously in detail (10). Briefly, VSMC grown in 24-well dishes were labeled for 24 hours in serum-supplied DMEM with [^3H]-thymidine (1 μCi/ml), washed with 2×2 ml of DMEM and incubated in serum-supplied DMEM. […] After 15 min, the cell lysate was transferred to Ependorf tubes, sedimented (12,000 rpm, 10 mm), and 1 ml of supernatant was transferred for the measurement of radioactivity (A1t). The remaining radioactivity from pellets and wells was extracted with 0.5 ml of 1% SDS/4 mM EDTA mixture, combined and counted (A2). Chromatin cleavage was quantified as the content of chromatin fragments normalized by total content of [^3H]-labeled DNA in accordance with the equation [1.5×(A1t−A1o)/(A2+A1t−1.5A1o)]×100% where A1o is the value of A1t before induction of apoptosis. […] At the time intervals shown in FIG. 4, 100 μl of cell suspension was mixed with 100 μl of PBS contairung 0.5% triton X100, and the content of chromatin fragments was measured as described previously in detail (20).
structure (smiles),measurement,setting,value
"C[C@@H]1O[C@@H](O[C@H]2C[C@@H](O)[C@]3(CO)[C@H]4[C@H](O)C[C@]5(C)[C@@H](C6=CC(=O)OC6)CC[C@]5(O)[C@@H]4CC[C@]3(O)C2)[C@H](O)[C@H](O)[C@H]1O [Ouabain, 1β,3β,5,11α,14,19-hexahydroxycard 20 [22]-enolide 3-[6-deoxy-α-L-mannopyrano-sidel]]",Chromatin fragments (%),"VSMC, 10% CS, 1 mM ouabain, 24 hours",1.6 ± 0.3%
same,Chromatin fragments (%),"VSMC, CS-free, 1 mM ouabain, 24 hours",2.5 ± 0.6 %
same,Chromatin fragments (%),"serum-deprived VSMC, 3 hours preincubation 1 mM ouabain, additional 8 hr",1.8 ± 0.3 %
same,Chromatin fragments (%),"serum-supplied VSMC, 3 hours preincubation 1 mM ouabain, additional 8 hr",1.3 ± 0.4 %
same,Chromatin fragments (%),"serum-supplied, heat-treated (46° C., 30 min) VSMC, 1 mM ouabain, 8 hr",1.6 ± 0.4%
